This note sets out measurements from US4369325A, “1,3-Diaryl-2-imino-imidazolidines and compounds” (EGYT Gyogyszervegyeszeti Gyar, priority 1978, dated 1983).

Each structure is given as a SMILES string. Like-named read-outs stand apart in the source and are kept apart here.

The subject of data set [1] is sodium:potassium ratio of the urine. Description: saluretic / DOCA-antagonizing effect, method of Kagawa (sodium:potassium ratio of the urine). It counts as in vivo, rats. The note with it: for potassium-retentive diuretic effect: in words. The text has this:
This means that these compounds promote the excretion of sodium ions to a far greater extent than that of potassium ions, thus the sodium:potassium ratio measured in the urine is favourably high. The saluretic effect was examined on rats according to the method of Kagawa (J. Pharm. Exp. Ther. 126, 123 /1959/). The sodium:potassium ratio of the urine was decreased experimentally by introducing deoxycorticosterone acetate (DOCA) into the animals, and the DOCA-antagonizing effects of the compounds were measured. The effects of the two new compounds examined in this test were essentially the same as that of Spironolactone, utilized as reference substance.

Data set [2] is described as follows: antiphlogistic effect (test not specified). Particulars: in vivo.
The test system of data set [3] is longitudinal smooth muscle of guinea pig ileum. Put plainly: spontaneous activity of the longitudinal smooth muscle of guinea pig ileum in vitro.
Data set [4] relates to isolated rat uterine horn. Put plainly: spontaneous activity of isolated rat uterine horn in vitro.
Data set [5] relates to prostaglandine synthetase enzyme. Description: inhibition of prostaglandine synthetase enzyme. It counts as biochemical. The text has this: (§1) 1,3-Bis(2',6'-dimethylphenyl)-2-imino-4-methyl-imidazoline fumarate is far more advantageous than Indomethacine also with regard to its toxicological properties. […] Based on the above, the new compound according to the invention can be applied in the treatment of inflammatory disorders with a far greater degree of safety than Indomethacine.

Data set [6] concerns adjuvant arthritis. Put plainly: adjuvant arthritis test. The note with it: in vivo.
In data set [7] the test system is carrageenin-induced plantar oedema. Put plainly: carrageenin-induced plantar oedema test. The note with it: Rattus norvegicus, read-out: ED50 value, carrageenin-induced plantar oedema test. It counts as in vivo, rats. For orientation: The carrageenan paw model is a standard test of acute inflammation.
A short description of data set [8]: LD50 determined on rats after oral administration. The note with it: rat, in vivo.
Description: as §1

Data set [9] relates to cotton granuloma. Description: cotton granuloma test. Particulars: in vivo.
For data set [10], the system named is histamine receptors. Description: blocking of histamine receptors.
Description: as §1

For data set [11] the following is noted: in vivo.
Description: as §1

For data set [12], the system named is serotonine receptors. Description: blocking of serotonine receptors.
Description: as §1

In data set [13] the test system is gastric acid secretion. Description: gastric acid secretion. Particulars: in vivo.
Description: as §1

The subject of data set [14] is urine excretion. Description: Lipschitz test, urine excretion of rats. It counts as in vivo. The note with it: for Urine: 5 hr, control 5.82. The text has this:
Some of the compounds according to the invention also exert favourable diuretic effects.

[15] abbreviates: second experiment, 480 μg/animal p.o. with hormone substitution (DOCA) 12.5 μg/animal s.c.
[16] abbreviates: first experiment, 480 μg/animal p.o. with hormone substitution (DOCA) 12.5 μg/animal s.c.

A word on the ED50: it is the dose that gives a 50% effect, or the effect in half of the subjects. Broadly, the LD50 is the dose expected to kill half of the subjects tested. A lower LD50 goes with greater toxicity.

As to `COc1ccc(COC(=O)N=C2N(c3c(C)cccc3C)CC(C)N2c2c(C)cccc2C)cc1` (centres unmarked) [1,3-Bis(2',6'-dimethylphenyl)-2-(p-methoxy-benzyloxycarbonyl)-imino-4-methyl-imidazolidine], the potassium-retentive diuretic effect entry in data set [1] was “strong potassium-retentive diuretic effect”.

Regarding `CCOC(=O)N=C1N(c2c(C)cccc2C)CC(C)N1c1c(C)cccc1C` (centres unmarked) [1,3-Bis(2',6'-dimethylphenyl)-2-carbethoxyimino-4-methyl-imidazolidine], in data set [1] (setting [15]), the “Effects*” value is on record as 1.19.

For `Cc1cccc(C)c1N1C(=N)N(c2c(C)cccc2C)[C@@H](C)[C@H]1C` [1,3-Bis(2',6'-dimethylphenyl)-2-imino-4,5-cis-dimethylimidazolidine], the potassium-retentive diuretic effect entry in data set [1] is “also exert potassium-retentive diuretic effect, they are, however, less effective than the compounds listed in Table 2”.

In the case of `Cc1cccc(C)c1N1CC(CC(N)=O)N(c2c(C)cccc2C)C1=N` (centres unmarked) [1,3-Bis(2',6'-dimethylphenyl)-2-imino-4-carboxamidomethyl-imidazolidine], the antiphlogistic effects result in data set [2] is on record as “significant antiphthlogistic effects”.

As to `Cc1cccc(C)c1N1CC(CCl)N(c2c(C)cccc2C)C1=N` (centres unmarked) [1,3-Bis(2',6'-dimethylphenyl)-2-imino-4-chloromethyl-imidazolidine], in data set [2], the antiphlogistic effects entry is on record as “significant antiphthlogistic effects”.

As for `Cc1cccc(C)c1N1CC(C)N(c2c(C)cccc2C)C1=N` (centres unmarked) [1,3-Bis(2',6'-dimethylphenyl)-2-imino-4-methylimidazolidine], the potassium-retentive diuretic effect entry in data set [1] is given as “also exert potassium-retentive diuretic effect, they are, however, less effective than the compounds listed in Table 2”. In addition, in [3], the “spontaneous activity of the longitudinal smooth muscle of guinea pig ileum” value was “increase the spontaneous activity”. In data set [4], the “spontaneous activity of isolated rat uterine horn” value is on record as “increase the spontaneous activity”.

`Cc1cccc(C)c1N1CC(C(=O)O)N(c2c(C)cccc2C)C1=N` (centres unmarked) [1,3-Bis(2',6'-dimethylphenyl)-2-imino-imidazolidine-4-carboxylic acid]: the antiphlogistic effects entry in data set [2] was “significant antiphthlogistic effects”.

On to `CC1CN(c2ccc(Cl)cc2)C(=N)N1c1ccc(Cl)cc1` (centres unmarked) [1,3-Bis(4'-chlorophenyl)-2-imino-4-methyl-imidazolidine], for which, in data set [2], the antiphlogistic effects result is “significant antiphthlogistic effects”.

With `Cc1cccc(C)c1N1CC(C)N(c2c(C)cccc2C)C1=N.O=C(O)/C=C/C(=O)O` (centres unmarked) [1,3-bis(2',6'-dimethylphenyl)-2-imino-4-methyl-imidazolidine fumarate], the “inhibition of prostaglandine synthetase enzyme” value in [5] is “does not inhibit the function of prostaglandine synthetase enzyme”. In addition, the “activity in the adjuvant arthritis test” value in [6] is listed as “considerable activity”. The median effective dose (ED50) in [7] (rats, oral administration) is 11 mg/kg. The compound further came in with an LD50 in [8] of 150 mg/kg. For the same compound, the “activity in the cotton granuloma test” value in [9] is “considerable activity”. Besides, the “connection of the antiphlogistic effect with blocking of histamine receptors” value in data set [10] was “not connected with the blocking of serotonine or histamine receptors”. Further, the ulcerogeneous side effect result in data set [11] is on record as “far lower than that of Indomethacine”. For the same compound, the “connection of the antiphlogistic effect with blocking of serotonine receptors” value in data set [12] is on record as “not connected with the blocking of serotonine or histamine receptors”. Moreover, in data set [13], the gastric acid secretion result is “decreases gastric acid secretion to a medium degree”.

`CCOC(=O)NC(=S)N=C1N(c2c(C)cccc2C)CC(C)N1c1c(C)cccc1C` (centres unmarked) [1-(1',3'-Bis/2",6"-dimethylphenyl/-4'-methyl-imidazolidine-2'-ylidene)-3-carbethoxy-thiourea]: the “Effects*” value in [1] (setting [16]) is 1.02. This compound also had a Urine in [14] (25 mg/kg p.o.) of 11.16 ml/kgx5 hr. In addition, the “diuretic effect / increase of urine excretion” value in [14] (rats, compared with urea) was “increases the urine excretion of rats to the same degree as urea”.

Take `Cc1cccc(N2CC(C)N(c3ccc(Cl)cc3)C2=N)c1C` (centres unmarked) [1-(2',3'-Dimethylphenyl)-2-imino-3-(4'-chlorophenyl)-4-methyl-imidazolidine]: the potassium-retentive diuretic effect result in data set [1] is “also exert potassium-retentive diuretic effect, they are, however, less effective than the compounds listed in Table 2”.

Take `Cc1cccc(C)c1N1C(=N)N(c2ccc(Cl)cc2)CC1C` (centres unmarked) [1-(4'-Chlorophenyl)-2-imino-3-(2',6'-dimethylphenyl)-4-methyl-imidazolidine]: the antiphlogistic effects entry in data set [2] is reported as “significant antiphthlogistic effects”.

For `CC(=O)OCC(=O)[C@H]1CC[C@H]2[C@@H]3CCC4=CC(=O)CC[C@]4(C)[C@H]3CC[C@]12C` [DOCA, deoxycorticosterone acetate, reference compound], the “Effects*” value in data set [1] (first experiment, DOCA alone, 12.5 μg/animal s.c.) was 0.75; in [1] (second experiment, DOCA alone, 12.5 μg/animal s.c.), 0.88.

Regarding `COc1ccc2c(c1)c(CC(=O)O)c(C)n2C(=O)c1ccc(Cl)cc1` [Indomethacine, reference compound], the ED50 in data set [7] (po) is 20 mg/kg. Also, the LD50 in [8] is 20 mg/kg.

For `COC(=O)C1CN(c2c(C)cccc2C)C(=N)N1c1c(C)cccc1C` (centres unmarked) [Methyl 1,3-bis(2',6'-dimethylphenyl)-2-imino-imidazolidine-4-carboxylate], the potassium-retentive diuretic effect result in [1] is “also exert potassium-retentive diuretic effect, they are, however, less effective than the compounds listed in Table 2”.

In the case of `CC(=O)S[C@@H]1CC2=CC(=O)CC[C@]2(C)[C@H]2CC[C@@]3(C)[C@@H](CC[C@@]34CCC(=O)O4)[C@H]12` [Spironolactone, reference compound], the “Effects*” value was determined as 1.17 in data set [1] (setting [16]) and 1.19 in [1] (setting [15]).

For the compound `NC(N)=O` [Urea, reference compound], the Urine in data set [14] (960 mg/kg p.o.) stood at 11.54 ml/kgx5 hr.
